Tests used:
Type in all cases: cell-based
[1] = biological target: T1, ATP-dependent translocase ABCB1 (Homo sapiens, UniProt P08183); test: Ratio of inhibition of P-gp in human NCI-H460/R cells assessed as mean fluorescence intensity at 20 uM relative to control
[2] = biological target: T1, ATP-dependent translocase ABCB1; test: Inhibition of P-gp in human NCI-H460/R cells assessed as mean fluorescence intensity of Rhodamine 123 at 20 uM (reference value: 16.96)
[3] = biological target: T1, ATP-dependent translocase ABCB1; test: Inhibition of P-gp in human NCI-H460/R cells assessed as fluorescence activity ratio at 20 uM relative to control

T1 sequence (P08183 whole entry): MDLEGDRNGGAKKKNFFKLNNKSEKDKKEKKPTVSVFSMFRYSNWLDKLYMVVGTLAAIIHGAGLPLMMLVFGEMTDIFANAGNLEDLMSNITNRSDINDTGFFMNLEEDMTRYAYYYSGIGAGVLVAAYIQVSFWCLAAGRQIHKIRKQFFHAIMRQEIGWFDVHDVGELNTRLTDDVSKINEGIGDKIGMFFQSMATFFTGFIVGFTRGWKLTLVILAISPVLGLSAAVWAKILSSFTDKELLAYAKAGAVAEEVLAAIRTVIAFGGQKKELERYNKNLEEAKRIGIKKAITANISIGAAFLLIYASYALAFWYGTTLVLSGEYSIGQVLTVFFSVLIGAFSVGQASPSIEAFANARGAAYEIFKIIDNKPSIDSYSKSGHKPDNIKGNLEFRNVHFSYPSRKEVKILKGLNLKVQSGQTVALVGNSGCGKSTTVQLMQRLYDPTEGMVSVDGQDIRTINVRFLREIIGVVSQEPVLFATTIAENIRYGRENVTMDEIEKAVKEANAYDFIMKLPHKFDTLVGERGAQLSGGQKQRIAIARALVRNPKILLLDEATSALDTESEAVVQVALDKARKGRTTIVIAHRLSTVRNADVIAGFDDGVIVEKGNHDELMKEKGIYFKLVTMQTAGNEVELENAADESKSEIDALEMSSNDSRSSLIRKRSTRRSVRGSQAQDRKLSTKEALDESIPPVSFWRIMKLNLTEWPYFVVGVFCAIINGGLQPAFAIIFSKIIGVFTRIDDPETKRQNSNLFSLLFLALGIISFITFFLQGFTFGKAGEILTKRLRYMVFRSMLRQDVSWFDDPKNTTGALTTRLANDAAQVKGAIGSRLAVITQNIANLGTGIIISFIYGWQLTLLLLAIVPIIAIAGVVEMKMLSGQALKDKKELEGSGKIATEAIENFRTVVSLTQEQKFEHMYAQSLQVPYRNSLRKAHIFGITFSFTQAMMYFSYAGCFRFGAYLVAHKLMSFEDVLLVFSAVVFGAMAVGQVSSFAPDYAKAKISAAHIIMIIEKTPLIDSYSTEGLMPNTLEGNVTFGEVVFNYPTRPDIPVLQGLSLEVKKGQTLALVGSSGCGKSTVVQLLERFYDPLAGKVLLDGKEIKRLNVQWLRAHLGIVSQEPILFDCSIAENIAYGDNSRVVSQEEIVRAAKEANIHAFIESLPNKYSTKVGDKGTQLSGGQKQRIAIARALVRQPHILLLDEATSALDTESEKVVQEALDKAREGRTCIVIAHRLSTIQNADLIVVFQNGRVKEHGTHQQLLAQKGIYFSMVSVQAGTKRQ

| SMILES | Ratio [1] | FI [2] | Ratio [3] |
| --- | --- | --- | --- |
| CC(=O)O[C@H]1C2=C(C(=O)C(OC(=O)c3ccc(Cl)cc3)=C(C(C)C)C2=O)[C@@]2(C)CCCC(C)(C)[C@@H]2[C@@H]1OC(=O)c1ccc(Cl)cc1 | 21.6 | 28.97 | 1.71 |
| CC(=O)O[C@H]1C2=C(C(=O)C(OC(=O)c3ccccc3)=C(C(C)C)C2=O)[C@@]2(C)CCCC(C)(C)[C@@H]2[C@@H]1O | 26.5 | 35.54 | 2.1 |
| COc1ccc(CCN(C)CCC[C@](C#N)(c2ccc(OC)c(OC)c2)C(C)C)cc1OC [DEXVERAPAMIL] | 26.9 | 36.07 | 2.13 |

Reference: ChEMBL document CHEMBL4613301, “Molecular Docking Studies of Royleanone Diterpenoids from Plectranthus spp. as P-Glycoprotein Inhibitors” (ACS Med Chem Lett, 2020)
